{
  "source": "patent US9377472B2",
  "about": "“Biological complex specific for Alzheimer's disease detection in vitro and use thereof” (Amoneta Diagnostics, priority 2012, dated 2016)",
  "key": {"PC12 cells [1]": {"tested_on": "PC12 cells", "test": "Calcium imaging (Fura-2) of differentiated PC12 cells after acute and/or chronic Aβ peptide application", "format": "cell-based, rat", "conditions": "preincubated overnight at low concentration (10 nM), then acute 1 μM Aβ1-42", "quoted_text": "PC12 rat pheochromocytoma cells were cultured in RPMI 1640 medium (InVitrogen) supplemented with 5% heat-inactivated horse serum, 10% foetal bovine serum (Dominique Dutcher) and antibiotics (penicillin 100 U/ml, streptomycin 100 U/ml, Sigma) at 37° C. in 5% CO2. PC12 cells were reseeded once a week. Before use, cells were platted in 35 mm glass-bottom culture dishes coated with type I collagen and Poly-L-ornithine; NGF (50 μg/1, Sigma) was added in the culture medium to induce their neuronal differentiation. Cells were used after 5 days in vitro, when they express a complete neuronal phenotype (neurite like extensions, voltage dependent ionic channels, neurotransmitters receptors and neurotransmitter secretion capacities).\nPC12 cells platted on glass-bottom culture dishes were loaded with Fura-2 AM (1 μM, InVitrogen) and pluronic acid (InVitrogen) in a Hepes buffer for 20 min at 37° C. […] Fluorescence was excited by a xenon lamp equipped with two alternating filters allowing a fluorescence excitation at 350 nm for Ca^2+-bound Fura-2 and at 380 nm for Ca^2+-unbound Fura-2. Image pairs were recorded during 20 minutes every 5 seconds using an EM-CCD camera (Hamamatsu Photonics). Emitted fluorescence intensities (510 nm) were measured from regions of interest centered on individual cells. Normalized ratios were calculated. […]"}, "PC12 cells [2]": {"tested_on": "PC12 cells", "test": "Immunocytochemistry of Aβ oligomers bound to PC12 cells (A11 antibody)", "format": "cell-based, rat", "description": "In an attempt to characterise the tertiary form of the peptide bound to the cells and responsible for the priming effect that was observed immunocytochemical experiments were performed: PC12 cells were plated on poly-L-ornithine coated coverslips and maintained for 5 days in culture media supplemented with NGF to induce neuronal differentiation at 37° C. According to experimental conditions, PC 12 cells have undergone a chronic treatment and/or an acute treatment (see Example 1). Cells were subsequently rinsed to eliminate unbound Aβ and fixed with 4% paraformaldehyde in phosphate buffered saline (PBS) for 10 minutes. PC12 cells were then incubated in a blocking solution (3% Bovine Serum Albumin in PBS) for 1 hour at room temperature. A rabbit polyclonal antibody A11 (Millipore) directed against Aβ oligomers diluted 1:1500 in blocking solution was applied to the cells overnight at 4° C. Cells were washed three times for 10 minutes with the blocking solution and incubated with the appropriate secondary Dylight 549-conjugated antibody goat […], (Jackson Immunoresearch, diluted 1:2000) for 2 hours at room temperature, washed 3×10 minutes in PBS and mounted in Mowiol.\nPanel G of FIG. 2(g) represents the quantification of the fluorescence intensity in the different experimental conditions in 2(a) to 2(f)."}},
  "data": [
    {"substance": "Aβ1-42: synthetic beta-amyloid peptide 1-42 (Bachem or Anaspec), SEQ ID NO: 4", "values": [
      {"measurement": "priming: [Ca^2+]i response to subsequent acute 1 μM Aβ1-42 after overnight preincubation with the peptide", "setting": "PC12 cells [1]", "result": "amplified"},
      {"measurement": "fluorescent signal of bound Aβ oligomers after acute application only", "setting": "PC12 cells [2]; acute application of 1 μM, no preincubation", "result": "No significant fluorescent signal"},
      {"measurement": "fluorescent signal of bound Aβ oligomers, chronic preincubation associated to acute stimulation", "setting": "PC12 cells [2]; chronic preincubation plus acute stimulation", "result": "a clear signal was observed"},
      {"measurement": "fluorescent signal of bound Aβ oligomers after preincubation only", "setting": "PC12 cells [2]; preincubation with 10 or 50 nM, no acute application", "result": "No significant fluorescent signal"}
    ]}
  ]
}
